Experimental data taken from US7759349B2, “Control of parasites in animals by the use of imidazo[1,2-b]pyridazine derivatives” (Schering-Plough Animal Health Corporation, priority 2003, dated 2010).

System: Haemonchus contortus
Experiment: Haemonchus contortus larvacidal assay: NemaTOX H. contortus dose response (larval development, eggs to L3)
Assay type: cell-based
Conditions: Haemonchus contortus, 144 h; Table 3; concentration required to inhibit development in 99% of the nematode larvae; eggs on agar to L3 stage (6 days); two-fold dilutions, 0.024 to 50 μg/ml; read-out: LD99
Procedure: Haemonchus Contortus Larvacidal Assay: NemaTOX H.contortus Dose Response (00/0510)
Effect on larval development is determined in the assay described by Gill et al. (International Journal of Parasitology, 1995, 25, 463-470). Briefly, in this assay nematode eggs were applied to the surface of an agar matrix containing the test compound and then allowed to develop through to the L3, infective stage (6 days)
The wells for each dilution of every compound (from highest to lowest concentration) were inspected to determine the well number corresponding to the lowest concentration at which development was inhibited in 99% of the nematode larvae present. As the well numbers correspond to a two-fold serial dilution of each compound, a titre (dilution factor) is generated as 2^n-1, where n is the well number. By dividing the highest concentration tested by the titre an LD99 value can be obtained, representing the concentration required to inhibit development in 99% of the nematode larvae present.
The compounds supplied as solid and viscous liquids were dissolved in DMSO. Twelve serial 1/2 dilutions in DMSO solution were prepared from the stock solution, each of which was then diluted 1/5 with water. Aliquots (10 μl) of each dilution were transferred to the bioassay plates to give a final concentration range of 0.024 to 50 μg/ml.
In Tables 1, 2 and 3 the Haemonchus contortus LD99 values for compounds in accordance with the present invention are listed, measured in micrograms/mL.

SMILES	IC99
CCCOc1ccc2nc3c(n2n1)CCc1cc(OC)ccc1-3 [Compound 121, 3-Methoxy-8-propoxy-5,6-dihydro-6b,7,11-triaza-benzo[a]fluorene]	0.203 µg/mL
CCCOc1ccc2nc3c(n2n1)Cc1ccccc1-3 [Compound 123, 3-Propoxy-5H-4,4a, 10-triaza-indeno[2,1-a]indene]	0.469 µg/mL

Same assay, conditions: Table 2; concentration required to inhibit development in 99% of the nematode larvae; eggs on agar to L3 stage (6 days); two-fold dilutions, 0.024 to 50 μg/ml

SMILES	LD99
COCCOc1ccc(-c2cn3nc(OCc4ccccc4)ccc3n2)cc1 [Compound 92]	0.438 micrograms/mL
COCCOc1cccc(-c2nc3ccc(Br)nn3c2C)c1 [Compound 93]	11 micrograms/mL
CCCOc1ccc2nc(-c3cccc(OCCOC)c3)c(C)n2n1 [Compound 94]	1.88 micrograms/mL
COCCOc1cccc(-c2nc3ccc(OCC4CC4)nn3c2C)c1 [Compound 95]	0.875 micrograms/mL
CCCCSc1ccc2nc(-c3ccc(OCCOC)cc3)cn2n1 [Compound 99]	0.0938 micrograms/mL
CCOc1ccc2nc(-c3ccc(OCCOC)cc3)cn2n1 [Compound 100]	0.406 micrograms/mL
CCSc1ccc2nc(-c3ccc(OCCOC)cc3)cn2n1 [Compound 101]	0.3123 micrograms/mL
COCCOc1cccc(-c2nc3ccc(SCC(C)C)nn3c2C)c1 [Compound 102]	12 micrograms/mL
COCCOc1cccc(-c2nc3ccc(SC(C)C)nn3c2C)c1 [Compound 103]	7 micrograms/mL
COCCOc1cccc(-c2nc3ccc(OC(C)C)nn3c2C)c1 [Compound 104]	5 micrograms/mL
COCCOc1ccc(-c2cn3nc(SCC(C)C)ccc3n2)cc1OC [Compound 105]	0.406 micrograms/mL
CCCCOc1ccc2nc(-c3ccc(OCCOC)c(OC)c3)cn2n1 [Compound 106]	0.313 micrograms/mL
COCCOc1ccc(-c2cn3nc(OC(C)C)ccc3n2)cc1OC [Compound 107]	7 micrograms/mL
COCCOc1ccc(-c2cn3nc(SCC(C)C)ccc3n2)cc1 [Compound 108]	0.313 micrograms/mL
COCCOc1ccc(-c2cn3nc(SC(C)C)ccc3n2)cc1 [Compound 109]	0.203 micrograms/mL
CCCCOc1ccc2nc(-c3ccc(OCCOC)cc3)cn2n1 [Compound 111]	0.219 micrograms/mL
COCCOc1ccc(-c2cn3nc(OC(C)C)ccc3n2)cc1 [Compound 112]	1.63 micrograms/mL
CCCOc1ccc2nc(-c3ccc(OCCOC)c(OC)c3)c(I)n2n1 [Compound 113]	5 micrograms/mL
COCCOc1ccc(-c2nc3ccc(SCC(C)C)nn3c2CN(C)C)cc1 [Compound 114]	3.25 micrograms/mL
CCCCSc1ccc2nc(-c3ccc(OCCOCC)cc3)cn2n1 [Compound 115]	0.219 micrograms/mL
CCCOc1ccc2nc(-c3ccc(OCCOCC)cc3)cn2n1 [Compound 116]	0.109 micrograms/mL
CCOCCOc1ccc(-c2cn3nc(OCC4CC4)ccc3n2)cc1 [Compound 117]	0.0391 micrograms/mL
CCOc1ccc2nc(-c3ccc(OCCOC)c(OC)c3)cn2n1 [Compound 118]	1.25 micrograms/mL
CCCOc1nn2cc(-c3ccc(OCCOC)cc3)nc2c2ccccc12 [Compound 119]	0.344 micrograms/mL
CCCOc1nn2cc(-c3ccc(OCCO)cc3)nc2c2ccccc12 [Compound 120]	1.38 micrograms/mL
